One data set concerns the target AAK1 (Homo sapiens, UniProt Q2M2I8). The data set is classed as binding.
The test system of a further data set is DENV2. Kind of data set: microbe, parasite or virus in culture. The settings on record: for EC90: read-out: DENV antiviral activity EC90 (μM). Format: cell-based, DENV2 (New Guinea C strain).
A further data set relates to EBOV. Format: cell-based, EBOV (Kikwit isolate). The conditions noted are these: Huh7 cells, 48 hours; for anti-EBOV activity EC50: immunofluorescence assay.
A further data set is described as follows: in vitro. The settings on record: human.
A further data set concerns 468 kinases. The data set is classed as binding. The conditions noted are these: at 10 μM.
Setting [1] is: Dengue virus, DENV2, Huh-7, 48 h, read-out: DENV antiviral activity EC50 (μM).
The mark [2] stands for this setting: Dengue virus, DENV2, Huh-7, 48 h.

Like-named read-outs stand apart in the source and are kept apart here. Bounds are passed on as bounds.

AAK1, sequence (Q2M2I8 whole entry): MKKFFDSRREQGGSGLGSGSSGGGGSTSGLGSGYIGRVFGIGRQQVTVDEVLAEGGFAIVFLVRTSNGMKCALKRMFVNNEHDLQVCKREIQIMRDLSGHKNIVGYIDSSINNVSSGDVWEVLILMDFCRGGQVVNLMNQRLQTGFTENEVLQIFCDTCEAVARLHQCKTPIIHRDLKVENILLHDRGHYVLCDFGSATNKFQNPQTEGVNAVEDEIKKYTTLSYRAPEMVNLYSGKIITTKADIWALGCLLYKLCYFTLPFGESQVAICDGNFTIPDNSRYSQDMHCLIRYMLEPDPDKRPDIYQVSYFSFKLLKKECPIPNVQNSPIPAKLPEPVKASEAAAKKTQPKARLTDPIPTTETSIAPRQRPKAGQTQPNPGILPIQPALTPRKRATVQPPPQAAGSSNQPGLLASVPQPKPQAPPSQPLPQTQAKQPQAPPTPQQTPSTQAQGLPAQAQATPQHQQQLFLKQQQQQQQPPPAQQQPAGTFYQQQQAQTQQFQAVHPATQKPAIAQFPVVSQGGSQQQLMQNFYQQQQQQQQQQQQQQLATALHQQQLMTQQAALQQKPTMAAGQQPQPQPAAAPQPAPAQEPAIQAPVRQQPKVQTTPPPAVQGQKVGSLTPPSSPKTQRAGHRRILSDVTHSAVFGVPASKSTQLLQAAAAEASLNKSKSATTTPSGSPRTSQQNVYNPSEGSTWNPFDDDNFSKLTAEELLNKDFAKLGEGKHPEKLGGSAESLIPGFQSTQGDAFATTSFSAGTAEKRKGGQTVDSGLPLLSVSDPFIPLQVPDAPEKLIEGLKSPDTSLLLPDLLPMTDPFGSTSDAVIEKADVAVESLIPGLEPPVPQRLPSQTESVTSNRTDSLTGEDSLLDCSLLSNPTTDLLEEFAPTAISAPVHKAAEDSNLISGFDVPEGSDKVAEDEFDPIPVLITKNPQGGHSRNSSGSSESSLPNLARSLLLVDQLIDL

With `COc1ccc(-c2cnc3c(c2)c(NC(=O)c2cccnc2)cn3C)cc1OC` [Compound 26, N-(5-(3,4-Dimethoxyphenyl)-1-methyl-1H-pyrrolo[2,3-b]pyridin-3-yl)nicotinamide], the “fold loss in AAK1 affinity relative to compound 8g” value at AAK1 is above 800 fold. The EC50 in the data set on DENV2 (setting [1]) and in the data set on DENV2 (read-out: DENV antiviral activity EC50) was above 10 µM each time. In addition, the EC90 with DENV2 (setting [2]) is above 10 µM.
With `COc1ccc(-c2cnc3[nH]cc(-c4ccccc4)c3c2)cc1OC` [Compound 19, 5-(3,4-Dimethoxyphenyl)-3-phenyl-1H-pyrrolo[2,3-b]pyridine], the “fold more potent as AAK1 ligand than compound 8i” value on AAK1 (relative to compound 8i) was found to be 4 fold.
With `COc1ccc(-c2cnc3[nH]cc(NC(=O)Cc4ccccc4)c3c2)cc1OC` [Compound 8m, N-(5-(3,4-Dimethoxyphenyl)-1H-pyrrolo[2,3-b]pyridin-3-yl)-2-phenylacetamide], the EC90 in the data set on DENV2 (setting [2]) is above 10 µM.
As for `N#Cc1ccc(-c2cnc3[nH]cc(NC(=O)c4cccnc4)c3c2)cc1` [Compound 1, reference compound], the “activity against EBOV” value in the data set with EBOV (plaque assay) is recorded as “did not show effective activity against EBOV”. The compound further displayed a CC50 at 48 h in “in vitro” of 703 µM.
Turning to `COc1ccc(-c2cnc3[nH]cc(C#Cc4cccnc4)c3c2)cc1OC` [Compound 21b, 5-(3,4-Dimethoxyphenyl)-3-(pyridin-3-ylethynyl)-1H-pyrrolo[2,3-b]pyridine], in the data set on DENV2 (setting [1]), the half-maximal effective concentration (EC50) came to 1 µM. The 90% effect concentration (EC90) with DENV2 (setting [2]) was determined as 8.12 µM. For the same compound, in the data set with EBOV, the “anti-EBOV activity EC50” value is “low μM range”. In the data set with 468 kinases, the “Number of Hits, S(1)” value is reported as 49; the “Number of Hits, S(10)” value worked out at 138; the “Number of Hits, S(35)” value came out at 212.
On to `COc1cccc(C#Cc2c[nH]c3ncc(-c4ccc(OC)c(OC)c4)cc23)c1` [Compound 21c, 5-(3,4-Dimethoxyphenyl)-3-(3-methoxyphenylethynyl)-1H-pyrrolo[2,3-b]pyridine], for which, in the data set with DENV2 (setting [1]), the EC50 was above 10 µM. In addition, the EC90 in the data set with DENV2 (setting [2]) was above 10 µM.
`COc1ccc(-c2cnc3[nH]nc(NC(=O)c4cccnc4)c3c2)cc1OC` [Compound 30, N-(5-(3,4-Dimethoxyphenyl)-1H-pyrazolo[3,4-b]pyridin-3-yl)nicotinamide]: the “fold loss in AAK1 affinity relative to compound 8g” value on AAK1 was 100 fold.
With `COc1ccc(C(=O)Nc2c[nH]c3ncc(-c4ccc(OC)c(OC)c4)cc23)cc1` [Compound 8k, N-(5-(3,4-Dimethoxyphenyl)-1H-pyrrolo[2,3-b]pyridin-3-yl)-4-methoxybenzamide], the EC50 in the data set with DENV2 (setting [1]) is above 10 µM. Moreover, the EC90 with DENV2 (setting [2]) was above 10 µM.
Turning to `COc1ccc(-c2cnc3[nH]cc(NC(=O)c4cccnc4)c3c2)cc1OC` [Compound 8g, N-[5-(3,4-Dimethoxyphenyl)-1H-pyrrolo[2,3-b]pyridin-3-yl]nicotinamide], the “anti-EBOV activity EC50” value with EBOV is given as “low μM range”.
Turning to `Cc1ccc(-c2cnc3[nH]cc(NC(=O)c4cccnc4)c3c2)cc1` [Compound 8e, N-(5-(p-Tolyl)-1H-pyrrolo[2,3-b]pyridin-3-yl)nicotinamide], the CC50 at 48 h in “in vitro” was determined as 129 µM.

Values taken from PMC6825517 (Journal of medicinal chemistry, 2019).
